Data published in patent publication US20080139387A1, “Fungicidal Mixtures” (BASF Aktiengesellschaft, priority 2004, published 2008).

Tested on: Cochliobolus miyabeanus
Experiment: Activity against brown spot of rice caused by Cochliobolus miyabeanus, protective application
Type: in vivo
Details: individual active compound, rice seedlings, rated after six days
Experimental: The active compounds, separately or jointly, were prepared as a stock solution comprising 0.25% by weight of active compound in acetone or DMSO. 1% by weight of the emulsifier Uniperol® EL (wetting agent having emulsifying and dispersing action based on ethoxylated alkylphenols) was added to this solution, and the mixture was appropriately diluted with water to the desired concentration.
Use example—Activity against brown spot of rice caused by Cochliobolus miyabeanus, protective application Leaves of rice seedlings of the cultivar “Tai-Nong 67” which had been grown in pots were sprayed to runoff point with an aqueous suspension having the concentration of active compound stated below. The next day, the plants were inoculated with an aqueous spore suspension of Cochliobolus miyabeanus. The test plants were then placed in climatized chambers at 22-24° C. and 95-99% relative atmospheric humidity for six days. The extent of the development of infection on the leaves was then determined visually.
Evaluation is carried out by determining the infected leaf areas in percent. These percentages were converted into efficacies.
The efficacy (E) is calculated as follows using Abbot's formula: […]
α corresponds to the fungal infection of the treated plants in % and β corresponds to the fungal infection of the untreated (control) plants in % An efficacy of 0 means that the infection level of the treated plants corresponds to that of the untreated control plants; an efficacy of 100 means that the treated plants are not infected.
The expected efficacies of the mixtures of active compounds are determined using Colby's formula [R. S. Colby, Weeds, 15, 20-22 (1967)] and are compared with the observed efficacies.
E expected efficacy, expressed in % of the untreated control, when using the mixture of the active compounds A and B at the concentrations a and b x efficacy, expressed in % of the untreated control, when using active compound A at the concentration a y efficacy, expressed in % of the untreated control, when using active compound B at the concentration b

Compound | Efficacy in % of the untreated control (4 ppm in the spray liquor) | Efficacy in % of the untreated control (1 ppm in the spray liquor) | Efficacy in % of the untreated control (16 ppm in the spray liquor)
CC1CCN(c2c(-c3c(F)cc(F)cc3F)c(Cl)nc3ncnn23)CC1 [I, 5-chloro-7-(4-methylpiperidin-1-yl)-6-(2,4,6-trifluorophenyl)-[1,2,4]tri-azolo[1,5-a]pyrimidine] | 32% | – | –
CCCCCCCCCCCCCN1CC(C)OC(C)C1 (stereo not shown) [II (tridemorph), tridemorph] | 0% | 0% | 9%
